Measurements taken from article PMC10541198, “Specific quinone reductase 2 inhibitors reduce metabolic burden and reverse Alzheimer’s disease phenotype in mice” (The Journal of Clinical Investigation, 2023).
“And” between values parts separate entries of the source, which are not always exact repeats. Equal entries are not always repeated.

System: 5xFAD mice
Assay: Delay fear conditioning in 5xFAD mice, YB-537 in drinking water
Assay type: in vivo, mouse
Set-up: Figure 8A, delay fear conditioning: unit not given here
Conditions: for freezing to conditioned context (individual mice) / freezing to conditioned cue (individual mice): in % (unit assumed); for Figure 8A, delay fear conditioning: individual animals
Protocol: We next aimed to test the effect of QR2 inhibition in AD model mice using YB-537, taking advantage of its extremely high specificity, solubility, and lack of toxicity. First, we determined YB-537 pharmacokinetics (PK) and oral bioavailability and assessed any acute observable toxicity in mice. […] We therefore opted to chronically deliver YB-537 to AD-model mice via their drinking water, so they may freely ingest the inhibitor at 50 mg/kg, with minimal intervention or trauma, for 1 month. We chose 9-month-old 5xFAD ([27]) male and female mice in double-blind experiments, so that well-progressed symptoms and pathologies would be present, to mimic clinically relevant cases in human patients ([35]), as has been previously described in this mouse model. Other than an improvement in nest quality ([36]) over time seen in animals receiving YB-537 (starting at age 8 months and ending at age 9 months), no changes to general physical parameters or wellbeing were observed over the 1 month of YB-537 ingestion (Supplemental Figure 6, A–J). Animals received the treatment for a week, and, on week 2, behavioral experiments commenced, including Morris water maze (MWM) and novel object recognition (NOR). These were carried out in parallel, with half of the animals (including both sexes and treatments) undergoing 1 of the paradigms in week 2, and the other in week 3. […] Since learning in this paradigm was slow, and performance was poor even following 6 days of training (using 4 learning trials a day), a test day was not carried out and instead only the learning rate was measured. […] Finally, during week 4, all the mice underwent DFC.
Since 1 month of chronic YB-537 ingestion rescued cognitive and pathological phenotypes more efficiently in female compared with male 5xFAD mice, we hypothesized that males may require a longer dosing regimen than females in order achieve a similar therapeutic effect. We therefore ran an additional experiment where we treated 5-month-old male 5xFAD mice with 50 mg/kg of YB-537 in drinking water for 4 months (starting at the age of 5 months, and ending at the age of 9 months, similar to the experiment described above), and compared cognitive performance to male 5xFAD and WT control mice of the same age not being treated with YB-537, using DFC in double-blind experiments.
DFC was done as previously described ([7]). Briefly, mice were given 2 minutes to explore the conditioning chambers, during which baseline freezing was measured. Then, a 20 second, 4 kHz, 80 dB tone was given, coterminating with the start of a 2 second, 0.5 mA foot-shock. This was repeated twice more in 1 minute intervals. Following the third and last bout, 1 minute was given before the animals were removed from the chambers. The next day, the animals were returned to the room under the same conditions and were placed back into the chambers, and freezing to the context was measured over the course of 5 minutes. The next day, the mice were brought to unfamiliar conditioning rooms and chambers. In this unfamiliar context, the protocol from the first day was repeated, except without the foot shocks. Freezing for the cue was recorded, starting from the sounding of the first tone. All measurements were taken with a Sentec stc-tb33usb-at camera, and analysis was done with Freeze Frame software (Actimetrics). […]
only, and kept there for 2 min. They were then placed inside a Habitest Operant Cage, within a Habitest Isolation Cubicle (Coulbourn), on a modular shock floor made of 16 m et al grids, connected to Precision Animal Shockers (Coulbourn) with illumination inside the cage coming from a 20 W bulb. Themice were given 2 min to explore, during which baseline freezing was measured. Then, a 20 s, 4 kHz, 80 dB tone was given, co- terminating with the start of a 2 s, 0.5 mA foot-shock, which was repeated a further two times, each having 1 min interval. Following the third, and last of these bouts, 1 min was given prior to the animals being removed from the chambers. […]

With `Cc1ccc(-c2cn3cccc(C)c3n2)cc1S(=O)(=O)N1CCNCC1` [YB-537] the “freezing to conditioned context (individual mice)” value (“freezing to conditioned context” for short) (5xFAD 1 month, both sexes) was 26.3 and 36.9 and 45.3 and 29.6 and 49.0 and 37.4 and 41.6 and 45.9 and 41.9 and 40.7 and 24.2 and 16.0 and 23.6 and 22.5 and 44.6 and 33.3, the “freezing to conditioned cue (individual mice)” value (“freezing to conditioned cue” for short) (5xFAD 1 month, both sexes) was 15.0 and 17.0 and 24.7 and 22.5 and 22.1 and 14.0 and 31.4 and 12.7 and 18.5 and 20.4 and 8.8 and 16.5 and 7.1 and 13.0 and 5.4 and 14.5 and the “freezing to conditioned context” value (5xFAD 1 month, females) was 26.3 and 36.9 and 16.0 and 23.6 and 22.5 and 44.6 and 33.3. The “freezing to conditioned cue” value (5xFAD 1 month, females) was 15.0 and 17.0 and 16.5 and 7.1 and 13.0 and 5.4 and 14.5, the “freezing to conditioned context” value (5xFAD 1 month, males) was 45.9 and 41.9 and 40.7 and 24.2 and 45.3 and 29.6 and 49.0 and 37.4 and 41.6 and the “freezing to conditioned cue” value (5xFAD 1 month, males) was 12.7 and 18.5 and 20.4 and 8.8 and 24.7 and 22.5 and 22.1 and 14.0 and 31.4. The “Figure 8A, delay fear conditioning” value (Baseline) was 11.3 and 26.4 and 19.1 and 15.1 and 10.9 and 6.4 and 3.1 and 7.6 and 8.2, the “Figure 8A, delay fear conditioning” value (CS/US 1) was 31.6 and 45.2 and 36.2 and 37.7 and 37.5 and 20.1 and 19.4 and 47.6 and 48.9 and the “Figure 8A, delay fear conditioning” value (CS/US 2) was 48.3 and 58.0 and 52.7 and 47.1 and 45.6 and 18.2 and 23.2 and 57.0 and 60.3. The “Figure 8A, delay fear conditioning” value (CS/US 3) was 62.5 and 61.5 and 55.2 and 55.7 and 52.0 and 17.2 and 31.2 and 65.3 and 57.9, the “learning during delay-fear conditioning” value (male 5xFAD, 50 mg/kg in drinking water 4 months) was “normal learning” and the “freezing to conditioned context” value (male 5xFAD, 4 months) was 24.6 and 26.8 and 50.3 and 22.2 and 32.3 and 63.4 and 63.3 and 75.1 and 38.8. The “freezing to conditioned cue” value (male 5xFAD, 4 months) was 44.3 and 66.5 and 54.4 and 28.0 and 38.6 and 64.3 and 47.4 and 65.9 and 58.0 and the “learning during delay fear conditioning” value (male and female 5xFAD, 1 month in drinking water) was “no difference observed across groups”.
